Columns and labels:
Staphylococcus aureus = test: Antibacterial activity against Staphylococcus aureus ATCC 10832; assay type: functional
Pseudomonas aeruginosa = test: Antibacterial activity against Pseudomonas aeruginosa ATCC 14210; assay type: functional

| MIC (Staphylococcus aureus) | MIC (Pseudomonas aeruginosa) | Structure (SMILES) |
| --- | --- | --- |
| > 100 µg/mL | > 100 µg/mL | CC(C)CCCCCCCC(=O)N[C@@H](CC(N)=O)C(=O)O [LIPOAMIDE A] |
| > 100 µg/mL | > 100 µg/mL | CC(C)CCCCCCCCC(=O)N[C@@H](CC(N)=O)C(=O)O [LIPOAMIDE B] |
| > 100 µg/mL | > 100 µg/mL | CC(C)CCCCCCCCCC(=O)N[C@@H](CC(N)=O)C(=O)O [LIPOAMIDE C] |

From ChEMBL document CHEMBL1772989, “Non-peptide metabolites from the genus Bacillus” (J Nat Prod, 2011)
